Format in all cases: cell-based, human
One assay concerns MDA 1986LN cells. Kind of assay: Proliferation of MDA 1986LN cells (MTT assay). Here is the method: MDA 1986LN cells (2×10^6 cells) were treated with indicated concentrations of AG490 for 8 h and whole extracts prepared. These whole-cell extracts (30 μg) were resolved on 7.5% SDS-PAGE, electrotransferred to a nitrocellulose membrane, probed for p-STAT3 (upper panel), striped and reprobed for STAT3 (middle panel) and β-actin (lower panel). […] The cells were treated with AG490 (100 μM) for the indicated durations and whole cell extracts prepared and analyzed as mentioned earlier. FIG. 15C compares the effect of curcumin and AG490 on proliferation of MDA 1986LN cells by MTT assay.
Further, the proliferation of MDA 1986LN cells when treated with curcumin was compared with AG490 treated cells by performing MTT assay.
(Formazan colour is commonly taken as a measure of viable cells.)

The next assay deals with multiple myeloma cells. The assay is described as follows: Proliferation of multiple myeloma cells, curcumin vs AG490 (data not shown). Particulars: 100 μM, 24 hours (data not shown).
The test system of assay [1] is STAT3 phosphorylation. Kind of assay: IL-6-inducible STAT3 phosphorylation in RPMI 8226 cells (Western blot). Here is the method:
FIGS. 3A-C show& that IL-6 induces STAT3 phosphorylation in human multiple myeloma RPMI 8226 cells and curcumin inhibits it. […] U266, RPMI 8226, MM.1S, MM.1R and OCl cells (2×10^6) were lysed, and 30 μg of whole-cell extracts were resolved on 7.5% SDS-PAGE, electrotransferred to a nitrocellulose membrane, and probed for phosphorylated-STAT3 (upper panel) and STAT3 (lower panel). […] Thirty micrograms of whole cell extracts were resolved on 7.5% SDS-PAGE, electrotransferred to a nitrocellulose membrane, and probed for the phosphorylated-STAT3 (upper panel) and stripped and reprobed for STAT3 (middle panel) and β-actin (lower panel).
For detection of STAT proteins, whole-cell extracts were prepared by lysing the curcumin-treated cells in lysis buffer (20 mM Tris, pH 7.4, 250 mM NaCl, 2 mM EDTA, pH 8.0, 0.1% Triton-X100, 0.01 mg/ml aprotinin, 0.005 mg/ml leupeptin, 0.4 mM PMSF, and 4 mM NaVO4). Lysates were then spun at 14000 rpm for 10 min to remove insoluble material, and resolved on a 7.5% gel. After electrophoresis, the proteins were electrotransferred to a nitrocellulose membrane, blocked with 5% nonfat milk, and probed with anti-STAT antibodies (1:1000) overnight at 4° C. The blot was washed, exposed to HRP-conjugated secondary antibodies for 1 h, and finally examined by chemiluminescence (ECL, Amersham Pharmacia Biotech. Arlington Heights, Ill.).
Since IL-6 is a growth factor for multiple myeloma and induces STAT3 phosphorylation (5, 6, 15), whether curcumin could inhibit IL-6-induced STAT3 phosphorylation was examined. […] IL-6 induced phosphorylation of STAT3 as early as 5 min and began to decline at 60 minutes (FIG. 3B). RPMI 8226 cells were then incubated with curcumin for different times and examined for IL-6-inducible STAT3 phosphorylation.
Exposure of cells to curcumin for 4 hours was sufficient to completely suppress IL-6-induced STAT3 phosphorylation. Curcumin alone had no effect on STAT3 phosphorylation in these cells (data not shown).
In general terms: A western blot detects proteins with antibodies after separation by electrophoresis.

The subject of assay [2] is STAT3 phosphorylation. Kind of assay: Phosphorylated STAT3 in HNSCC cells (immunocytochemistry, horseradish peroxidase stain). Particulars: 50 μM, 2 hrs. Here is the method:
MDA 1986LN, MDA 686LN and JMAR cells were incubated with either media alone or with curcumin (50 μM) for 2 hrs and then analyzed by immunocytochemistry using Alexa fluorochrome for the distribution of STAT3 (original magnification ×200). […] The same procedure as mentioned above was performed on the same cells and the p-STAT3 analyzed by immunocytochemistry using horse radish peroxidase stain (original magnification ×200).
To further confirm that curcumin inhibited STAT3 phosphorylation, the same curcumin-treated and untreated cells were analyzed for phosphorylated STAT3 by immunocytochemistry using horseradish peroxidase stain. […] These findings confirmed that curcumin inhibited STAT3 phosphorylation.

Another assay concerns MM.1 cells. Kind of assay: IL-6-induced proliferation of MM.1 cells. The note with it: curcumin 10 μM, 48 h, serum-free. Here is the method: (§1) FIGS. 7A-B show& that IL-6 induces proliferation of human multiple myeloma cells and curcumin inhibits it. […] Cell proliferation assays were performed as described below. Results are shown as mean (±s.d.) of percent [^3H] thymidine incorporation or percent proliferation by MTT of triplicate cultures compared to the untreated control.
(§2) The antiproliferative effects of curcumin against different multiple myeloma cell lines were determined by the MTT dye uptake method as described earlier (28). Briefly, the cells (5000/well) were incubated in triplicate in a 96-well plate in the presence or absence of indicated test samples in a final volume of 0.1 ml for 24 h at 37° C. […] The OD at 570 nm was measured using a 96-well multiscanner autoreader (Dynatech MR 5000), with the extraction buffer serving as blank. Percent cell viability cell viability was calculated using the following formula: Percent cell viability=(OD of the experiment samples/OD of the control)×100.
(§3) The antiproliferative effects of curcumin were also monitored by the thymidine incorporation method. […] Six hours before the completion of experiment, cells were pulse treated with 0.5 μCi [^3H]thymidine, and the uptake of [^3H]thymidine was monitored using a Matrix-9600 β-counter (Packard Instruments, Downers Grove, Ill.). […]
(§4) Whether curcumin suppresses the proliferative effects of IL-6 was determined.

The test system of another assay is MM.1S and MM.1R cells. Kind of assay: Cell growth of dexamethasone-sensitive and dexamethasone-resistant MM cells (MTT). Particulars: curcumin 10 μM, 3 days. Here is the method:
MM.1S and MM.1R cells were cultured with dexamethasone (1 μM) in the absence or presence of curcumin (10 μM) for 3 days and cell viability was checked by the MTT method. Results are shown as mean (±s.d. indicated by error bar) of percent cell growth of triplicate cultures compared to the untreated control.
The antiproliferative effects of curcumin against different multiple myeloma cell lines were determined by the MTT dye uptake method as described earlier (28). Briefly, the cells (5000/well) were incubated in triplicate in a 96-well plate in the presence or absence of indicated test samples in a final volume of 0.1 ml for 24 h at 37° C. Thereafter, 0.025 ml of MTT solution (5 mg/ml in PBS) was added to each well. After a 2-h incubation at 37° C., 0.1 ml of the extraction buffer (20% SDS, 50% dimethylformamide) was added and the extract incubated overnight at 37° C. for solubilization of formazan crystals. The OD at 570 nm was measured using a 96-well multiscanner autoreader (Dynatech MR 5000), with the extraction buffer serving as blank. Percent cell viability cell viability was calculated using the following formula: Percent cell viability=(OD of the experiment samples/OD of the control)×100.
Multiple myeloma treated with dex gradually develops resistance to this drug.

The test system of a further assay is MM.1R cells. Kind of assay: IL-6-induced proliferation of MM.1R cells. Particulars: curcumin 10 μM, 48 h, serum-free. Here is the method:
as §1, §2, §3, §4

For the compound `COc1cc(/C=C/C(=O)CC(=O)/C=C/c2ccc(O)c(OC)c2)ccc1O` [curcumin, diferuloylmethane], the “inhibition of proliferation of MDA 1986LN cells compared with AG490” value in the assay with MDA 1986LN cells is “more efficiently that AG490”. In addition, the “proliferation of multiple myeloma cells” value in the assay on multiple myeloma cells was “completely suppressed”. Also, the “exposure sufficient to completely suppress IL-6-induced STAT3 phosphorylation” value with STAT3 phosphorylation [1] (50 μM curcumin, IL-6 10 ng/ml 10 min) was determined as 4 h. For the same compound, the “effect of curcumin alone on STAT3 phosphorylation” value in the assay on STAT3 phosphorylation [1] (without IL-6 (data not shown)) is “no effect”. Moreover, the “phosphorylation of STAT3 (immunocytochemistry)” value with STAT3 phosphorylation [2] (JMAR cells) is listed as “no inhibition of STAT3 phosphorylation was observed”; in the assay with STAT3 phosphorylation [2] (MDA 1986LN and MDA 686LN cells) it was “inhibited the phosphorylation of STAT3”. The “IL-6-induced cell proliferation in MM.1 cells” value with MM.1 cells was “inhibited IL-6-induced cell proliferation”. Further, the “proliferation of dex-resistant and dex-sensitive multiple myeloma cells” value in the assay on MM.1S and MM.1R cells was “inhibited the proliferation of dex-resistant and dex-sensitive multiple myeloma cells similarly”. The “IL-6-induced cell proliferation in MM.1R cells” value with MM.1R cells is recorded as “inhibited IL-6-induced cell proliferation”.

The values above are taken from patent US20050049299A1, “Selective inhibitors of stat-3 activation and uses thereof” (priority 2003, published 2005).
